For orientation: MIC means the lowest concentration found to suppress growth. Low values mean greater potency, high ones weaker potency.

Converted amounts (≈) assume the structure as drawn.

In assay [1] the test system is Escherichia coli. Put plainly: Antibacterial activity against Escherichia coli CCM 3954 after 24 hrs by microdilution method. The note with it: CCM 3954, 24 h. The class given is functional. On the technique in general: In broth dilution the organism is exposed to a series of concentrations in liquid medium.
Assay [2] deals with Staphylococcus aureus. Kind of assay: Antibacterial activity against Staphylococcus aureus CCM 4223 after 24 hrs by microdilution method. The class given is functional. As to conditions: CCM 4223, 24 h.
In assay [3] the test system is Staphylococcus aureus. Put plainly: Antibacterial activity against methicillin-resistant Staphylococcus aureus 4591 clinical isolates after 24 hrs by microdilution method. The class given is functional. As to conditions: Staphylococcus aureus, 4591, 24 h.
For a further assay, the system named is Bacillus subtilis. Put plainly: Antibacterial activity against Bacillus subtilis after 24 hrs by microdilution method. The class given is functional.
Assay [4] relates to Escherichia coli. Kind of assay: Antibacterial activity against Escherichia coli 16702 after 24 hrs by microdilution method. The class given is functional. The note with it: Escherichia coli, 16702, 24 h.
The subject of assay [5] is Staphylococcus haemolyticus. Put plainly: Antibacterial activity against fluoroquinolne-resistant Staphylococcus haemolyticus 16568 after 24 hrs by microdilution method. The class given is functional. As to conditions: Staphylococcus haemolyticus, 16568, 24 h.
The test system of another assay is Streptococcus agalactiae. Put plainly: Antibacterial activity against Streptococcus agalactiae after 24 hrs by microdilution method. It is filed as functional.
Another assay deals with Enterococcus faecium. Kind of assay: Antibacterial activity against vancomycin-resistant Enterococcus faecium 419/ana clinical isolates after 24 hrs by microdilution method. The class given is functional.
In assay [6] the test system is Pseudomonas aeruginosa. Kind of assay: Antibacterial activity against Pseudomonas aeruginosa CCM 3955 after 24 hrs by microdilution method. The class given is functional. The note with it: CCM 3955, 24 h.
A further assay deals with Salmonella enteritidis. Put plainly: Antibacterial activity against Salmonella enteritidis S2-25 after 24 hrs by microdilution method. It is filed as functional, Salmonella enterica subsp. enterica serovar Enteritidis. As to conditions: Salmonella enterica, S2-25, 24 h.
The next assay relates to Enterococcus faecalis. Put plainly: Antibacterial activity against Enterococcus faecalis CCM 4224 after 24 hrs by microdilution method. The class given is functional. The note with it: CCM 4224, 24 h.
For the next assay, the system named is Acinetobacter baumannii. Kind of assay: Antibacterial activity against Acinetobacter baumannii A3-08 after 24 hrs by microdilution method. It is filed as functional. The note with it: A3-08, 24 h.
The test system of a further assay is Burkholderia multivorans. Kind of assay: Antibacterial activity against Burkholderia multivorans after 24 hrs by microdilution method. It is filed as functional.
In assay [7] the test system is Staphylococcus epidermidis. Kind of assay: Antibacterial activity against Staphylococcus epidermidis 8700/B after 24 hrs by microdilution method. The class given is functional.
In assay [8] the test system is Stenotrophomonas maltophilia. Put plainly: Antibacterial activity against Stenotrophomonas maltophilia S2-23 after 24 hrs by microdilution method. The note with it: S2-23, 24 h. The class given is functional.
Assay [9] concerns Pseudomonas aeruginosa. Put plainly: Antibacterial activity against Pseudomonas aeruginosa 16575 after 24 hrs by microdilution method. The class given is functional. As to conditions: Pseudomonas aeruginosa, 16575, 24 h.

For the compound `CCCCCCCCCCCCCCOP(=O)(CCN(CCN)CCN)OC[C@H]1O[C@@H](n2ccc(=O)[nH]c2=O)[C@H](O)[C@@H]1O` (stereo partly specified), the MIC was determined as 12.5 µg/mL (≈ 19.7 µM) in the assay on Escherichia coli [1]; 25 µg/mL (≈ 39.4 µM) in the assay with Staphylococcus aureus [2]; 12.5 µg/mL (≈ 19.7 µM) against Staphylococcus aureus [3]; 6.25 µg/mL (≈ 9.86 µM) against Bacillus subtilis; 6.25 µg/mL (≈ 9.86 µM) in the assay on Escherichia coli [4]; 3.13 µg/mL (≈ 4.94 µM) in assay [5]. The MIC is 6.25 µg/mL (≈ 9.86 µM) in the assay with Streptococcus agalactiae; 100 µg/mL (≈ 158 µM) in the assay on Enterococcus faecium; 3.13 µg/mL (≈ 4.94 µM) in the assay with Pseudomonas aeruginosa [6]; 12.5 µg/mL (≈ 19.7 µM) with Salmonella enteritidis; 100 µg/mL (≈ 158 µM) against Enterococcus faecalis; 25 µg/mL (≈ 39.4 µM) in the assay on Acinetobacter baumannii. Also, the MIC in the assay on Burkholderia multivorans was 12.5 µg/mL (≈ 19.7 µM); in assay [7] it was 3.13 µg/mL (≈ 4.94 µM); in [8] it was 6.25 µg/mL (≈ 9.86 µM); against Pseudomonas aeruginosa [9], 6.25 µg/mL (≈ 9.86 µM).
For `CCCCCCCCCCCCCOP(=O)(CCN(CCCN)CCCN)OC[C@H]1O[C@@H](n2ccc(=O)[nH]c2=O)[C@H](O)[C@@H]1O` (stereo partly specified), the MIC came to 25 µg/mL (≈ 38.6 µM) against Escherichia coli [1]; 12.5 µg/mL (≈ 19.3 µM) against Staphylococcus aureus [2]; 25 µg/mL (≈ 38.6 µM) in the assay with Staphylococcus aureus [3]; 3.13 µg/mL (≈ 4.83 µM) in the assay on Bacillus subtilis; 50 µg/mL (≈ 77.2 µM) with Escherichia coli [4]; 6.25 µg/mL (≈ 9.65 µM) in assay [5]. The MIC in the assay on Streptococcus agalactiae is 6.25 µg/mL (≈ 9.65 µM); in the assay with Enterococcus faecium, 100 µg/mL (≈ 154 µM); against Pseudomonas aeruginosa [6], 3.13 µg/mL (≈ 4.83 µM); against Salmonella enteritidis, 50 µg/mL (≈ 77.2 µM); in the assay on Enterococcus faecalis it was 50 µg/mL (≈ 77.2 µM); in the assay with Acinetobacter baumannii it was 50 µg/mL (≈ 77.2 µM). For the same compound, the MIC in the assay with Burkholderia multivorans was 50 µg/mL (≈ 77.2 µM); in assay [7], 12.5 µg/mL (≈ 19.3 µM); in assay [8], 50 µg/mL (≈ 77.2 µM); against Pseudomonas aeruginosa [9], 25 µg/mL (≈ 38.6 µM).
Turning to `CCCCCCCCCCCCCCCCOP(=O)(CCN(CCNC(=N)N)CCNC(=N)N)OC[C@H]1O[C@@H](n2ccc(=O)[nH]c2=O)[C@H](O)[C@@H]1O` (stereo partly specified), the MIC against Escherichia coli [1] is 3.13 µg/mL (≈ 4.2 µM); in the assay on Staphylococcus aureus [2] it was 6.25 µg/mL (≈ 8.38 µM); with Staphylococcus aureus [3], 6.25 µg/mL (≈ 8.38 µM); with Bacillus subtilis, 3.13 µg/mL (≈ 4.2 µM); in the assay with Escherichia coli [4] it was 3.13 µg/mL (≈ 4.2 µM); in assay [5], 6.25 µg/mL (≈ 8.38 µM). Further, the MIC with Streptococcus agalactiae stood at 3.13 µg/mL (≈ 4.2 µM); in the assay on Enterococcus faecium, 50 µg/mL (≈ 67 µM); in the assay with Pseudomonas aeruginosa [6], 6.25 µg/mL (≈ 8.38 µM); in the assay on Salmonella enteritidis it was 3.13 µg/mL (≈ 4.2 µM); against Enterococcus faecalis it was 25 µg/mL (≈ 33.5 µM); with Acinetobacter baumannii it was 6.25 µg/mL (≈ 8.38 µM). Also, the MIC in the assay with Burkholderia multivorans was found to be 25 µg/mL (≈ 33.5 µM); in assay [7] it was 3.13 µg/mL (≈ 4.2 µM); in assay [8], 3.13 µg/mL (≈ 4.2 µM); in the assay with Pseudomonas aeruginosa [9] it was 6.25 µg/mL (≈ 8.38 µM).
For `CCCCCCCCCCCCCCCOP(=O)(CCN1C[C@@H](O)[C@@H](N)C1)OC[C@H]1O[C@@H](n2ccc(=O)[nH]c2=O)[C@H](O)[C@@H]1O` (stereo partly specified), the MIC against Escherichia coli [1] was found to be 6.25 µg/mL (≈ 9.66 µM); with Staphylococcus aureus [2] it was 12.5 µg/mL (≈ 19.3 µM); with Staphylococcus aureus [3] it was 25 µg/mL (≈ 38.7 µM); in the assay on Bacillus subtilis, 6.25 µg/mL (≈ 9.66 µM); with Escherichia coli [4], 6.25 µg/mL (≈ 9.66 µM); in assay [5], 12.5 µg/mL (≈ 19.3 µM). Besides, the minimum inhibitory concentration (MIC) with Streptococcus agalactiae was found to be 3.13 µg/mL (≈ 4.84 µM); in the assay with Enterococcus faecium it was 50 µg/mL (≈ 77.3 µM); in the assay with Pseudomonas aeruginosa [6] it was 25 µg/mL (≈ 38.7 µM); in the assay on Salmonella enteritidis, 6.25 µg/mL (≈ 9.66 µM); against Enterococcus faecalis it was 12.5 µg/mL (≈ 19.3 µM); against Acinetobacter baumannii it was 6.25 µg/mL (≈ 9.66 µM). The MIC in the assay with Burkholderia multivorans is > 200 µg/mL; in assay [7], 6.25 µg/mL (≈ 9.66 µM); in assay [8] it was 6.25 µg/mL (≈ 9.66 µM); against Pseudomonas aeruginosa [9], 12.5 µg/mL (≈ 19.3 µM).
In the case of `CCCCCCCCCCCCCCCCOP(=O)(CCN(CCN)CCN)OC[C@H]1O[C@@H](n2ccc(=O)[nH]c2=O)[C@H](O)[C@@H]1O` (stereo partly specified), the MIC with Escherichia coli [1] was 3.13 µg/mL (≈ 4.73 µM); against Staphylococcus aureus [2], 6.25 µg/mL (≈ 9.44 µM); in the assay on Staphylococcus aureus [3], 6.25 µg/mL (≈ 9.44 µM); against Bacillus subtilis, 1.56 µg/mL (≈ 2.36 µM); in the assay with Escherichia coli [4] it was 3.13 µg/mL (≈ 4.73 µM); in assay [5], 3.13 µg/mL (≈ 4.73 µM). Further, the MIC against Streptococcus agalactiae came to 1.56 µg/mL (≈ 2.36 µM); against Enterococcus faecium, 50 µg/mL (≈ 75.5 µM); against Pseudomonas aeruginosa [6], 3.13 µg/mL (≈ 4.73 µM); in the assay with Salmonella enteritidis, 3.13 µg/mL (≈ 4.73 µM); against Enterococcus faecalis it was 12.5 µg/mL (≈ 18.9 µM); against Acinetobacter baumannii it was 6.25 µg/mL (≈ 9.44 µM). The MIC amounted to 25 µg/mL (≈ 37.8 µM) with Burkholderia multivorans, 3.13 µg/mL (≈ 4.73 µM) in [7], 1.56 µg/mL (≈ 2.36 µM) in assay [8] and 3.13 µg/mL (≈ 4.73 µM) against Pseudomonas aeruginosa [9].
Turning to `CCCCCCCCCCCCCCOP(=O)(CCN1CCC(N)C1)OC[C@H]1O[C@@H](n2ccc(=O)[nH]c2=O)[C@H](O)[C@@H]1O` (stereo partly specified), the MIC with Escherichia coli [1] amounted to 3.13 µg/mL (≈ 5.08 µM); against Staphylococcus aureus [2], 12.5 µg/mL (≈ 20.3 µM); with Staphylococcus aureus [3] it was 25 µg/mL (≈ 40.5 µM); with Bacillus subtilis it was 1.56 µg/mL (≈ 2.53 µM); with Escherichia coli [4], 3.13 µg/mL (≈ 5.08 µM); in assay [5] it was 6.25 µg/mL (≈ 10.1 µM). Also, the MIC came to 3.13 µg/mL (≈ 5.08 µM) in the assay with Streptococcus agalactiae; 50 µg/mL (≈ 81.1 µM) with Enterococcus faecium; 3.13 µg/mL (≈ 5.08 µM) against Pseudomonas aeruginosa [6]; 6.25 µg/mL (≈ 10.1 µM) in the assay on Salmonella enteritidis; 6.25 µg/mL (≈ 10.1 µM) against Enterococcus faecalis; 6.25 µg/mL (≈ 10.1 µM) in the assay on Acinetobacter baumannii. Moreover, the MIC in the assay on Burkholderia multivorans was determined as 50 µg/mL (≈ 81.1 µM); in assay [7] it was 3.13 µg/mL (≈ 5.08 µM); in assay [8], 12.5 µg/mL (≈ 20.3 µM); in the assay with Pseudomonas aeruginosa [9] it was 3.13 µg/mL (≈ 5.08 µM).

(Values after ChEMBL document CHEMBL4038308, “Lipophosphonoxins II: Design, Synthesis, and Properties of Novel Broad Spectrum Antibacterial Agents” (J Med Chem, 2017).)
